Results on one substance are retold here after patent publication US20250066419A1 (priority 2021, published 2025).

“FITC-linker-YGRRARRRRRRIYSIKDTKLGN-biotin [CTP-SEB2]”: in the test on MoDCs, the “penetration of peptide into MoDCs” value is “penetrated MoDCs much more”. Besides, the “peptide permeability in DCs (peptide-FITC in CD11c+ CD80+ population)” value in the test with dendritic cells is “permeated a large amount of peptide”. Moreover, the “permeability effect (degree of fluorescent labeling of cells)” value in the test with BMDCs is “permeability effect is greater”.
